Values quoted from earlier work as cited in patent publication US20060155301A1, “Methods and devices usable in eye surgery” (priority 2002, published 2006).
Read-outs that look alike come from different tables or passages of the source.

Assays:
lens epithelial cells [1] = settings: in vitro
lens epithelial cells [2] = settings: EDTA solution in irrigation solution, cadaver eyes
lens epithelial cells [3] = settings: 2% trypsin solution in irrigation solution, cadaver eyes

Molecule | inhibiting lens epithelial cells proliferation (lens epithelial cells [1]) | other results
O=c1[nH]cc(F)c(=O)[nH]1 [5 fluorouracil] | effective | –
O=C(O)CN(CCN(CC(=O)O)CC(=O)O)CC(=O)O [EDTA, Ethylenediamine tetraacetic acid] | – | separation of lens epithelial cells (lens epithelial cells [2]): the anterior lens epithelial cells could be separated
COc1cc2c(c(OC)c1OC)-c1ccc(OC)c(=O)cc1[C@@H](NC(C)=O)CC2 [colchicines] | effective | –
COc1cccc2c1C(=O)c1c(O)c3c(c(O)c1C2=O)C[C@@](O)(C(C)=O)C[C@@H]3O[C@H]1C[C@H](N)[C@H](O)[C@H](C)O1 [daunomycin/daunorubicin] | effective | –
COc1cccc2c1C(=O)c1c(O)c3c(c(O)c1C2=O)C[C@@](O)(C(=O)CO)C[C@@H]3O[C@H]1C[C@H](N)[C@H](O)[C@H](C)O1 [doxorubicin] | effective | –
CN(Cc1cnc2nc(N)nc(N)c2n1)c1ccc(C(=O)N[C@@H](CCC(=O)O)C(=O)O)cc1 [methotrexate] | effective | –
CO[C@@]12[C@H](COC(N)=O)C3=C(C(=O)C(C)=C(N)C3=O)N1C[C@@H]1N[C@@H]12 [mitomycin] | effective | –
CC(=O)O[C@H]1C(=O)[C@@]2(C)[C@H]([C@H](OC(=O)c3ccccc3)[C@]3(O)C[C@H](OC(=O)[C@H](O)[C@@H](NC(=O)c4ccccc4)c4ccccc4)C(C)=C1C3(C)C)[C@]1(OC(C)=O)CO[C@@H]1C[C@@H]2O [taxol] | effective | –
trypsin (protein, UniProt P00760 24-246, looked up, enzyme evaluated for separation of lens epithelial cells) Serine protease 1: IVGGYTCGANTVPYQVSLNSGYHFCGGSLINSQWVVSAAHCYKSGIQVRLGEDNINVVEGNEQFISASKSIVHPSYNSNTLNNDIMLIKLKSAASLNSRVASISLPTSCASAGTQCLISGWGNTKSSGTSYPDVLKCLKAPILSDSSCKSAYPGQITSNMFCAGYLEGGKDSCQGDSGGPVVCSGKLQGIVSWGSGCAQKNKPGVYTKVCNYVSWIKQTIASN | – | damage to the zonules (lens epithelial cells [3]): the zonules were damaged; separation of lens epithelial cells (lens epithelial cells [3]): lens epithelial cells were stripped in places
